Measurements published in US11603391B2, “CATH2 derivatives” (Universiteit Utrecht Holding B.V., priority 2014, dated 2023).
No end group written: not given here.

Key:
[1] = type: in vivo, chicken (Ross308 broilers); details: for bodyweight at 7 days post hatch (D7): 1 mg/kg in ovo at embryonic day 18, compared to vehicle treated birds; for HATCHABILITY: in vivo, 1 mg/kg
Experimental: FIG. 8A-8B—Bodyweights of Ross308 broilers assessed at hatch (D0) (FIG. 8A) and at 7 days after hatch (D7) (FIG. 8B). Birds were injected at embryonic day 18 with 1 mg/kg peptide or vehicle.
DCATH2 peptide and truncated analogs D-CMAP(1-21) and D-CMAP(4-21) were suspended in a Cholesterol/PBS formulation. Ross308 eggs were injected in the amnion fluid at 18 days of embryonic age with 100 μl of peptide containing suspension and returned to an egg incubator to hatch (˜ at 21 days embryonic age). Both control groups were injected in the amnion fluid with cholesterol/PBS formulation. The 1 mg/kg bodyweight dose of peptide was calculated based on an embryo body weight of 22 g. After hatch, all birds were weighed individually (D0) and transferred into isolator units per treatment (n=120/group). Birds were fed ad libitum and at 7 days after hatch (D7) bodyweights of individual birds were assessed.

[2] = test system: avian pathogenic Escherichia coli 506; experiment: In ovo peptide treatment, intratracheal E. coli challenge of broiler chicks; type: in vivo, chicken (Ross308 broilers)
Excerpt: FIG. 4A-4B—Differential and total counts of chicken peripheral blood leukocytes at 2 days p.i. after intra-tracheal injection with 10^6 CFU of avian pathogenic E. coli 506. A) total counts. B) differential counts.
FIG. 5A-5B—Mortality after intra-tracheal injection with 10^6 CFU of avian pathogenic E. coli 506. A) Survival curves of peptide treated and nontreated birds during 7 days post infection. B) Reduction of mortality (%) relative to untreated infected birds.
(§1) FIG. 6A-6B—Lesion scores determined at 7 days p.i. after intratracheal injection with 10^6 CFU of avian pathogenic E. coli 506. Left and right thoracic air sacs (respiratory tract), liver and heart (systemic infection) were separately evaluated using a scoring system: 0=no lesions, 1=mild lesions, 2=moderate lesions and 3=severe lesions. The mean lesion scores (MLS) were calculated as the sum of lesion scores per bird. A) The percentage of colibacillosis positive birds (MLS>1) and the reduction of colibacillosis positive birds relative to untreated infected birds. B) The average lesion scores relative to untreated infected birds.
FIG. 7—Thoracic air sac counts 7 days after intratracheal injection with 10^6 CFU of avian pathogenic E. coli 506.
DCATH2 peptide was suspended in a Cholesterol/PBS formulation. Ross308 eggs were injected in the amnion fluid at 18 days of embryonic age with 100 μl of DCATH2 containing suspension and returned to an egg incubator to hatch (˜ at 21 days embryonic age). Both control groups were injected in the amnion fluid with cholesterol/PBS formulation. The 1 mg/kg bodyweight dose of DCATH2 peptide was calculated based on an embryo body weight of 22 g. After hatch, birds were transferred into isolator units per treatment (n=54/group). Three days after hatch, all birds except the negative control were intratracheally inoculated with an avian pathogenic Escherichia coli 506 strain (UU strain) at a dose of 1×10^6 CFU per bird. Two day after challenge, 13 birds per group were sacrificed and used to take samples for blood and organ analysis. Blood samples were taken to determine total leukocyte counts and leukocyte differentiation. During the 7 day challenge period mortality was registered per day. At the end of the challenge period at 7 days post infection, all remaining birds were sacrificed and in the left and right side thoracic air sacs, liver and heart were examined for lesion scores.

[3] = test system: HD11 cells; experiment: Neutralization of LPS-induced interleukin-1β transcription in HD11 cells (real time PCR); type: cell-based, chicken; details: 20 μM peptide pre-incubated with 50 ng/ml LPS; 4 h
Experimental: (§2) FIG. 11A-11B—Neutralization of lipopolysaccharide-induced interleukin-1β induction and nitric oxide production in HD11 cells by CMAP27 derived peptides. HD11 cells were seeded in 96 wells tissue culture treated plates (2×10^5 cell/mL) in RPMI-1640/10% FCS. Final concentrations of 50 ng/ml LPS were pre-incubated with or without 20 μM peptide for 30 min at 37° C. (5% CO2), applied to the cells and incubated for 4 h and 24 h. A) Transcription levels of interleukin-1 were determined by real time PCR (4 h only). B) Supernatants were collected for the determination of nitric oxide production (24 h incubations only) using the Griess assay. Significance levels: *P<0.05, **P<0.01, ***P<0.001. Data represents means±SEM from 3-4 independent experiments.
as §2, with “FIG. 12A-12B—Substitution” for “FIG. 11A-11B—Neutralization”, “of phenylalanine residues by tryptophan enhances the” for “of lipopolysaccharide-induced interleukin-1β induction and nitric oxide production”, “in vitro LPS neutralization capacity of” for “in HD11 cells by”, “h or” for “h and”
HD11 cells were seeded in 96 wells tissue culture treated plates (2×10^5 cell/mL) in RPMI-1640/10% FCS. Final concentrations of 50 ng/ml Salmonella minnesota LPS were pre-incubated with or without 20 μM peptide for 30 min at 37° C. (5% CO2), applied to the cells and incubated for 4 h and 24 h. A) Transcription levels of interleukin-1 were determined by real time PCR (4 h only). B) Supernatants were collected for the determination of nitric oxide production (24 h incubations only) using the Griess assay.

[4] = test system: avian pathogenic Salmonella enteritidis pt13a; experiment: In ovo peptide treatment, subcutaneous Salmonella enteritidis challenge of broiler chicks; type: in vivo, chicken (Ross308 broilers)
Excerpt: FIG. 1A-1B—Differential and total counts of chicken peripheral blood leukocytes at 2 days p.i. after subcutaneous injection with 10^6 CFU of avian pathogenic Salmonella enteritis pt13a. A) total counts. B) differential counts.
FIG. 2A-2B—Mortality after subcutaneous injection with 10^6 CFU of avian pathogenic Salmonella enteritis pt13a. A) Survival curves of peptide treated and nontreated birds during 7 days post infection. B) Reduction of mortality (%) relative to untreated infected birds (+ control).
as §1, with “3A-3B—Lesion” for “6A-6B—Lesion”, “subcutaneous” for “intratracheal”, “Salmonella enteritis pt13a.” for “E. coli 506.”, “salmonellosis” for “colibacillosis”
DCATH2 peptide (the full D-amino acid analog of CMAP1-26) was suspended in a cholesterol/PBS formulation. Ross308 eggs were injected in the amnion fluid at 18 days of embryonic age with 100 μl of DCATH2 containing suspension and returned to an egg incubator to hatch (˜ at 21 days embryonic age). Both control groups were injected in the amnion fluid with cholesterol/PBS formulation. The 1 mg/kg bodyweight dose of peptide was calculated based on an embryo body weight of 22 g. After hatch, birds were transferred into 4 pens per treatment (n=40/group). Three days after hatch, all birds except the negative control were subcutaneously inoculated with an avian pathogenic Salmonella enteritidis pt13a strain at a dose of 5×10^6 CFU per bird. Two day after challenge, 12 birds per group were sacrificed and used to take samples for blood and organ analysis. Blood samples were taken to determine total leukocyte counts and leukocyte differentiation. During the 7 day challenge period mortality was registered per day. At the end of the challenge period at 7 days post infection, all remaining birds were sacrificed and in the left and right side thoracic air sacs, liver and heart were examined for lesion scores.

[5] = 7 days p.i., 1 mg/kg in ovo, surviving birds
[6] = 2 days p.i., 1 mg/kg in ovo, compared to untreated non-infected birds
[7] = 2 days p.i., compared to non-treated, non-infected animals

Substance: RFLREIRRFRPKVTITIQ-NH2 [D-C(4-21)]
- bodyweight at 7 days post hatch (D7) [1]: significant higher
- HATCHABILITY [1]: 94%

Substance: RFGRFLRKIRRFRPKVTITIQGSARFG (CMAP27) [CATH2, in b91 probably DCATH2 is meant]
- reduction of severity of colibacillosis-related lesions ([2]; 7 days p.i., 1 mg/kg in ovo): 64%

Substance: Phe/Trp substituted analog of CMAP7-21-NH2: CMAP7-21-NH2 with phenylalanine substituted by tryptophan (RKIRRWRPKVTITIQ-NH2)
- LPS-induced IL-1β expression blocked [3]: 86.3%

Substance: RFGRFLREIRRFRPKVTITIQ-NH2 [D-C(1-21)]
- bodyweight at 7 days post hatch (D7) [1]: significant higher
- HATCHABILITY [1]: 95%

Substance: CMAP10-21-NH2: N-terminally truncated variant of CMAP1-21 (RRFRPKVTITIQ-NH2)
- LPS-neutralizing activity (block of LPS-induced IL-1β expression, in words) [3]: lack LPS-neutralizing activity

Substance: Phe/Trp substituted analog of CMAP10-21-NH2: CMAP10-21-NH2 with phenylalanine substituted by tryptophan (RRWRPKVTITIQ-NH2)
- LPS-induced IL-1β expression blocked [3]: 71.9%

Substance: RFGRFLREIRRFRPKVTITIQGSARF-NH2 [DCATH2]
- delay of mortality ([4]; 1 mg/kg in ovo at embryonic day 18, Salmonella challenge 3 days after hatch): up to 3 days p.i.
- absolute number of peripheral blood heterophils ([4]; 2 days p.i., 1 mg/kg in ovo, compared to non-infected birds): significantly higher
- decrease of severity of lesions in salmonellosis positive birds ([4]; 7 days p.i., 1 mg/kg in ovo): 69%
- reduction of mortality relative to untreated infected birds ([4]; 7 days p.i., 1 mg/kg in ovo): 50%
- reduction of salmonellosis positive birds (mean lesion score>1) relative to untreated infected birds [4, 5]: 53%
- absolute number of peripheral blood heterophils [2, 6]: significantly higher
- absolute number of peripheral blood leukocytes [2, 6]: significantly higher
- absolute number of lymphocytes [2, 7]: No differences
- absolute number of monocytes [2, 7]: No differences
- reduction of mortality relative to untreated infected birds ([2]; 7 days p.i., 1 mg/kg in ovo): 30%
- reduction of severity of colibacillosis-related lesions ([2]; 7 days p.i., 1 mg/kg in ovo): 64%
- reduction of colibacillosis positive birds (MLS>1) relative to untreated infected birds [2, 5]: 52%
- reduction of air sac colonization by E. coli ([2]; 7 days p.i., 1 mg/kg in ovo, thoracic air sac counts): 93%
- bodyweight at 7 days post hatch (D7) [1]: significant higher
- HATCHABILITY [1]: 97%
